Assay results reported in patent publication US20250040548A1, “Herbicidal compositions comprising saflufenacil” (BASF SF, priority 2023, published 2025).

Columns and labels:
ALOMY = assay: Post-emergence application in greenhouse trials; type: in vivo, Alopercurus myosuroides; settings: 7 DAT, growth stage 21, saflufenacil as commercial 342 g/l SC formulation
Method: (§1) In the examples below, using the method of S. R. Colby (1967) “Calculating synergistic and antagonistic responses of herbicide combinations”, Weeds 15, p. 22ff., the value E, which is expected if the activity of the individual active compounds is only additive, was calculated.
(§2) [formula] • where • X=percent activity using active herbicide A at an application rate a; • Y=percent activity using active saflufenacil at an application rate b; • E=expected activity (in %) by A+B at application rates a+b.
(§3) If the value found experimentally is higher than the value E calculated according to Colby, a synergistic effect is present.
(§4) The culture containers used were plastic pots containing loamy sand with approximately 3.0% of humus as substrate. The seeds of the test plants were sown separately for each species.
For the post-emergence treatment, the test plants were grown to a plant height of from 3 to 15 cm, depending on the plant habit, and only then treated with the active compounds which had been suspended or emulsified in water. To this end, the test plants were either sown directly, and grown in the same containers, or they were first grown separately as seedlings and transplanted into the test containers a few days prior to treatment. […]
The test period extended over 2 to 4 weeks. During this time, the plants were tended and their response to the individual treatments was evaluated. […]

ELEIN = assay: Post-emergence application in field trials (Examples 2 and 3); type: in vivo, Eleusine indica
Method: as §1, §2, §3
(§5) On field test sites, natural weed infestation or seeded weeds were treated post-emergence of the weeds.
(§6) For the post emergence treatment, the weedy plants were treated as indicated below. The herbicidal compositions were, together with the adjuvant(s) as indicated, suspended or emulsified in water (200 l/ha unless indicated otherwise) as distribution medium and sprayed with commercial flat fan nozzles.
In the following experiments, the herbicidal activity for the individual herbicidal compositions (solo and mixture applications) was assessed the indicated days after treatment (DAT). The assessments for the damage on undesired weeds caused by the composition was carried out using a scale from 0 to 100%, compared to the untreated control plants. Here, 0 means no damage and 100 means complete destruction of the plants.
For the post emergence treatment, the weedy plants were treated as indicated below. The herbicidal compositions were, together with the adjuvant(s) as indicated, suspended or emulsified in water (200 I/ha unless indicated otherwise) as distribution medium and sprayed with commercial flat fan nozzles.

EPHHL = assay: as above; type: in vivo, Euphorbia heterophylla; settings: 21 DAT, growth stage 12-16, height 5-15 cm, 0.5% MSO
Method: as §1, §2, §3, §5, §6
In the following experiments, the herbicidal activity for the individual herbicidal compositions (solo and mixture applications) was assessed the indicated days after treatment (DAT). The assessments for the damage on undesired weeds caused by the composition was carried out using a scale from 0 to 100%, compared to the untreated control plants. […]

BRADC = assay: Post-emergence application in greenhouse trials; type: in vivo, Brachiaria decumbens; settings: growth stage 12, saflufenacil as commercial 342 g/l SC formulation
Method: as §1, §2, §3, §4
For the post-emergence treatment, the test plants were grown to a plant height of from 3 to 15 cm, depending on the plant habit, and only then treated with the active compounds which had been suspended or emulsified in water. To this end, the test plants were either sown directly, and grown in the same containers, or they were first grown separately as seedlings and transplanted into the test containers a few days prior to treatment.
Depending on the species, the plants were kept at 10-25° C. and 20-35° C., respectively.
The test period extended over 2 to 4 weeks. During this time, the plants were tended and their response to the individual treatments was evaluated.
Evaluation was carried out using a scale from 0 to 100. 100 means no emergence of the plants, or complete destruction of at least the above-ground parts, and 0 means no damage or normal course of growth. A good herbicidal activity is given at values of at least 70, and very good herbicidal activity is given at values of at least 85.
Unless indicated otherwise, herbicide A and saflufenacil were formulated (50 g/I) and applied with addition of 1% MSO (methylated seed oil) as adjuvant. In the greenhouse trials, the solvent used was water (200 I/ha).

| SMILES | % Herbicidal activity (ALOMY; A-1 3.12 g ai/ha) [%] | % Herbicidal activity (ELEIN; A-1 12.5 g ai/ha, 21 DAT, height 1-15 cm, 140 l/ha water, 1% MSO + 2.5% ammoniumsulfate) [%] | % Herbicidal activity (ELEIN; A-1 12.5 g ai/ha, 21 DAT, height 7-10 cm, 1% v/v MSO and 1% w/v ammoniumsulfate) [%] | % Herbicidal activity (ELEIN; A-1 12.5 g ai/ha, 21 DAT, height 15-20 cm, 1% v/v MSO and 1% w/v ammoniumsulfate) [%] | % Herbicidal activity (ELEIN; A-1 25 g ai/ha, 19 DAT, growth stage 24, 0.5% MSO) [%] | % Herbicidal activity (ELEIN; A-1 25 g ai/ha, 21 DAT, height 7-10 cm, 1% v/v MSO and 1% w/v ammoniumsulfate) [%] | % Herbicidal activity (ELEIN; A-1 25 g ai/ha, 21 DAT, height 15-20 cm, 1% v/v MSO and 1% w/v ammoniumsulfate) [%] | % Herbicidal activity (ELEIN; A-1 50 g ai/ha, 19 DAT, growth stage 24, 0.5% MSO) [%] | % Herbicidal activity (EPHHL; A-1 25 g ai/ha) [%] | % Herbicidal activity (BRADC; A-1 1.56 g ai/ha, 21 DAT) [%] | % Herbicidal activity (BRADC; A-1 3.12 g ai/ha, 7 DAT) [%] | % Herbicidal activity (BRADC; A-1 3.12 g ai/ha, 21 DAT) [%] | % Herbicidal activity (ALOMY; B-1 3.12 g ai/ha) [%] | % Herbicidal activity (ELEIN; B-1 12.5 g ai/ha, 21 DAT, height 1-15 cm, 140 l/ha water, 1% MSO + 2.5% ammoniumsulfate) [%] | % Herbicidal activity (ELEIN; B-1 25 g ai/ha, 19 DAT, growth stage 24, 0.5% MSO) [%] | % Herbicidal activity (ELEIN; B-1 25 g ai/ha, 21 DAT, height 7-10 cm, 1% v/v MSO and 1% w/v ammoniumsulfate) [%] | % Herbicidal activity (ELEIN; B-1 25 g ai/ha, 21 DAT, height 15-20 cm, 1% v/v MSO and 1% w/v ammoniumsulfate) [%] | % Herbicidal activity (EPHHL; B-1 25 g ai/ha) [%] | % Herbicidal activity (BRADC; B-1 3.12 g ai/ha, 7 DAT) [%] | % Herbicidal activity (BRADC; B-1 3.12 g ai/ha, 21 DAT) [%] |
| --- | --- | --- | --- | --- | --- | --- | --- | --- | --- | --- | --- | --- | --- | --- | --- | --- | --- | --- | --- | --- |
| CCOC(=O)COc1ccccc1Oc1nc(-n2c(=O)cc(C(F)(F)F)n(C)c2=O)c(F)cc1Cl [A-1, ethyl 2-[2-[[3-chloro-5-fluoro-6-[3-methyl-2,6-dioxo-4-(trifluoromethyl)pyrimidin-1-yl]-2-pyridyl]oxy]phenoxy]acetate] | 70 | 49 | 18 | 27 | 68 | 78 | 55 | 73 | 97 | 75 | 85 | 85 | – | – | – | – | – | – | – | – |
| CC(C)N(C)S(=O)(=O)NC(=O)c1cc(-n2c(=O)cc(C(F)(F)F)n(C)c2=O)c(F)cc1Cl [B-1, saflufenacil] | – | – | – | – | – | – | – | – | – | – | – | – | 25 | 19 | 0 | 0 | 0 | 5 | 40 | 25 |
